The nature of data set [1]: Dog pharmacokinetics, oral powder in capsule. In kind it is in vivo, beagle dogs. The note with it: for AUCinf / AUClast: single 3 mg/kg, powder in capsule, mean, 3 mg/kg, in ng·h/mL. The protocol:
Groups, Dosing, and Collection. The pharmacokinetics of the free acid and the tris salt of the compound of Formula I administered by oral capsules was assessed in dogs. Three male beagle dogs were administered a single dose of 3 mg/kg free acid on Day 1 of the study, and a single dose of 3 mg/kg tris salt on Day 8 of the study. Plasma was collected pre-dose, and at 0.5, 1, 2, 4, 8, 12 and 24 hours post-dose via puncture of peripheral veins.
(§1) LC MS-MS Analysis. Liquid Chromatography with tandem mass spectrometry was used to determine plasma concentrations of the compound of Formula I free acid and the tris salt in plasma samples collected at prescribed time points. Instrumentation included YMC-Triart C18, S-5 μm (50×2.1 mm) HPLC column, liquid chromatograph Shimadzu LC-30AD with communications bus module CBM-20A and Auto SIL-20AC HT; and a Triple Quad 5500 LC/MS/MS instrument. Tolbutamide was used as an internal standard.

Data set [2] is described as follows: Rat pharmacokinetics, oral gavage, plasma by LC-MS/MS. Type of data set: in vivo, Sprague-Dawley rats.
The nature of data set [3]: Dog pharmacokinetics, oral gavage of suspension (0.5% methylcellulose in saline). In kind it is in vivo. The note with it: male beagle dogs; for AUC(0-inf) / AUC(0-t): dog, plasma, oral gavage suspension, mean. The protocol: In a follow-up study, the pharmacokinetics of tris salt of the compound of Formula I were investigated via oral gavage of a 0.5% methylcellulose in saline formulation. Two groups of animals were tested. In Group 1, three male beagle dogs were administered a single dose of 3 mg/kg tris salt. In Group 2, three male beagle dogs were administered a single dose of 30 mg/kg tris salt. Plasma was collected pre-dose, and at 0.5, 1, 2, 4, 8, 12 and 24 hours post-dose via puncture of peripheral veins.
as §1

The target of another data set is MCT4 (Homo sapiens, UniProt O15427). The note with it: affinity of MCT4 for lactate; cited from earlier work.
Setting [4] is: rat male, 20 mg/kg free acid, oral gavage, mean.
Setting [5] is: male beagle dogs, listed as Salt.

Where a name gives a salt, the structure may show the parent alone.

These results are taken from patent US20250206723A1, “METHODS AND PROCESSES FOR THE PREPARATION OF MCT4 INHIBITORS” (Vettore, LLC, priority 2022, published 2025).

Sequence of MCT4 (O15427 whole entry): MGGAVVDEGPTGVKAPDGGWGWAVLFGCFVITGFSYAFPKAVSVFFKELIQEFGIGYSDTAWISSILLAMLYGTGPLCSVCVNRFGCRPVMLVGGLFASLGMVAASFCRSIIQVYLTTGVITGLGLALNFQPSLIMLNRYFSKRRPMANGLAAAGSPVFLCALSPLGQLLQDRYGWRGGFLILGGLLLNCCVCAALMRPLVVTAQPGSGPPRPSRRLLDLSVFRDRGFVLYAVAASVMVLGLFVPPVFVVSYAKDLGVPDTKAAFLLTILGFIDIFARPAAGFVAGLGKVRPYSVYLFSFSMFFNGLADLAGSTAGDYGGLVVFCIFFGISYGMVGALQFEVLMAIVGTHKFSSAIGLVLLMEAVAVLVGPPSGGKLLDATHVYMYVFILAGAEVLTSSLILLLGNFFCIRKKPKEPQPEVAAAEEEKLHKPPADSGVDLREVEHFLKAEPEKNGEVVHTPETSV

As to `CC(C)(OCc1cc(-c2cccc(OC3CCC3)c2)n(-c2ccccc2N2CCC2)n1)C(=O)O` [Free Acid, 2-([1-[2-(azetidin-1-yl)phenyl]-5-(3-cyclobutoxyphenyl)-1H-pyrazol-3-yl]methoxy)-2-methylpropanoic acid], the clinical symptoms entry is on record as “No abnormal clinical symptoms” in data set [1] (male beagle dogs, single 3 mg/kg oral capsule) and “No abnormal clinical symptoms” in data set [2] (rats, single oral gavage, all dose groups). Besides, the AUCinf in data set [1] (male beagle dogs) was 1265. In data set [1] (male beagle dogs), this compound had an AUClast of 1215. The “AUC—% Extrap_obs” value in data set [2] (rat female, 20 mg/kg free acid, oral gavage, mean) is reported as 9.9%; in data set [2] (rat female, 60 mg/kg free acid, oral gavage, mean), 16.7%; in data set [2] (rat female, 200 mg/kg free acid, oral gavage, mean) it was 22.1%; in data set [2] (setting [4]) it was 0.61%; in data set [2] (rat male, 60 mg/kg free acid, oral gavage, mean) it was 0.477%; in data set [2] (rat male, 200 mg/kg free acid, oral gavage, mean), 0.704%. Moreover, the AUClast/D in data set [2] (setting [4]) turned out to be 8332 ng·h/mL.

Consider `CC(C)(OCc1cc(-c2cccc(OC3CCC3)c2)n(-c2ccccc2N2CCC2)n1)C(=O)O` [Tris Salt], for which the “total drug exposure across time (AUClast and AUCInf) compared to the free acid” value in data set [1] (dogs, powder in capsule and suspension formulations) is on record as “higher”. In data set [1] (setting [5]), the AUCinf is 4092. For the same compound, the AUClast in data set [1] (setting [5]) worked out at 3924. Besides, the AUC(0-inf) in data set [3] (3 mg/kg) came to 5200 ng·h/mL; in data set [3] (30 mg/kg), 56800 ng·h/mL. The AUC(0-t) is 5080 ng·h/mL in data set [3] (3 mg/kg) and 41300 ng·h/mL in data set [3] (30 mg/kg). In addition, the clinical symptoms result in data set [3] (single 3 or 30 mg/kg oral gavage) is “No abnormal clinical symptoms”. Besides, the “AUC—% Extrap_obs” value in data set [2] (rat female, 25 mg/kg tris salt, oral gavage, mean) turned out to be 9%; in data set [2] (rat female, 75 mg/kg tris salt, oral gavage, mean), 18.5%; in data set [2] (rat female, 250 mg/kg tris salt, oral gavage, mean) it was 59.9%; in data set [2] (rat male, 25 mg/kg tris salt, oral gavage, mean), 1.28%; in data set [2] (rat male, 75 mg/kg tris salt, oral gavage, mean), 0.473%; in data set [2] (rat male, 250 mg/kg tris salt, oral gavage, mean), 26.5%. Moreover, the “total drug exposure across time (AUClast and AUCInf) versus free acid groups” value in data set [2] (rats, male and female) is recorded as “higher”. Also, the “Maximum exposure levels (Cmax) versus free acid groups” value in data set [2] (rats, male and female, except females at 20/25 mg/kg) was “higher”.

Consider `CC(O)C(=O)O` (stereo not shown) [lactate], for which the Km on MCT4 was 28 mM.

A word on the AUC(0-inf): it is total exposure, with the tail of the curve extrapolated. What is called AUC(0-t) is exposure summed from dosing to a finite time, without extrapolation to infinity. Lower therefore signals less exposure. The term Km denotes the concentration of substrate that gives half-maximal velocity.
